The results in this text go back to patent US11629146B2, “Substituted [1,2,4]triazolo[4,3-a]pyrazines as modulators of sodium channel activity” (Praxis Precision Medicines, Inc., priority 2016, dated 2023).

One may read the inhibition as how much of the control response was suppressed. As usually defined, the clearance is the rate of elimination divided by the concentration. Read a low clearance as inefficient removal. Usually half-life stands for how long it takes for the measured level to halve. The term IC50 denotes the concentration needed to halve the response being measured.

For series [1], the target named is human NaV1.5 late sodium current (INaL) (Homo sapiens (Human), UniProt Q14524). Briefly: INaL inhibition at hNaV1.5, PatchXpress electrophysiology. The format is cell-based. Conditions: HEK-293 cells expressing recombinant human NaV1.5, HEK-293 cells expressing hNaV1.5, late current evoked by 300 nM ATX-II, read-out: INaL v1.5 (1 μM, % Inhibition).
Chain of human NaV1.5 late sodium current (INaL) (Q14524 whole entry): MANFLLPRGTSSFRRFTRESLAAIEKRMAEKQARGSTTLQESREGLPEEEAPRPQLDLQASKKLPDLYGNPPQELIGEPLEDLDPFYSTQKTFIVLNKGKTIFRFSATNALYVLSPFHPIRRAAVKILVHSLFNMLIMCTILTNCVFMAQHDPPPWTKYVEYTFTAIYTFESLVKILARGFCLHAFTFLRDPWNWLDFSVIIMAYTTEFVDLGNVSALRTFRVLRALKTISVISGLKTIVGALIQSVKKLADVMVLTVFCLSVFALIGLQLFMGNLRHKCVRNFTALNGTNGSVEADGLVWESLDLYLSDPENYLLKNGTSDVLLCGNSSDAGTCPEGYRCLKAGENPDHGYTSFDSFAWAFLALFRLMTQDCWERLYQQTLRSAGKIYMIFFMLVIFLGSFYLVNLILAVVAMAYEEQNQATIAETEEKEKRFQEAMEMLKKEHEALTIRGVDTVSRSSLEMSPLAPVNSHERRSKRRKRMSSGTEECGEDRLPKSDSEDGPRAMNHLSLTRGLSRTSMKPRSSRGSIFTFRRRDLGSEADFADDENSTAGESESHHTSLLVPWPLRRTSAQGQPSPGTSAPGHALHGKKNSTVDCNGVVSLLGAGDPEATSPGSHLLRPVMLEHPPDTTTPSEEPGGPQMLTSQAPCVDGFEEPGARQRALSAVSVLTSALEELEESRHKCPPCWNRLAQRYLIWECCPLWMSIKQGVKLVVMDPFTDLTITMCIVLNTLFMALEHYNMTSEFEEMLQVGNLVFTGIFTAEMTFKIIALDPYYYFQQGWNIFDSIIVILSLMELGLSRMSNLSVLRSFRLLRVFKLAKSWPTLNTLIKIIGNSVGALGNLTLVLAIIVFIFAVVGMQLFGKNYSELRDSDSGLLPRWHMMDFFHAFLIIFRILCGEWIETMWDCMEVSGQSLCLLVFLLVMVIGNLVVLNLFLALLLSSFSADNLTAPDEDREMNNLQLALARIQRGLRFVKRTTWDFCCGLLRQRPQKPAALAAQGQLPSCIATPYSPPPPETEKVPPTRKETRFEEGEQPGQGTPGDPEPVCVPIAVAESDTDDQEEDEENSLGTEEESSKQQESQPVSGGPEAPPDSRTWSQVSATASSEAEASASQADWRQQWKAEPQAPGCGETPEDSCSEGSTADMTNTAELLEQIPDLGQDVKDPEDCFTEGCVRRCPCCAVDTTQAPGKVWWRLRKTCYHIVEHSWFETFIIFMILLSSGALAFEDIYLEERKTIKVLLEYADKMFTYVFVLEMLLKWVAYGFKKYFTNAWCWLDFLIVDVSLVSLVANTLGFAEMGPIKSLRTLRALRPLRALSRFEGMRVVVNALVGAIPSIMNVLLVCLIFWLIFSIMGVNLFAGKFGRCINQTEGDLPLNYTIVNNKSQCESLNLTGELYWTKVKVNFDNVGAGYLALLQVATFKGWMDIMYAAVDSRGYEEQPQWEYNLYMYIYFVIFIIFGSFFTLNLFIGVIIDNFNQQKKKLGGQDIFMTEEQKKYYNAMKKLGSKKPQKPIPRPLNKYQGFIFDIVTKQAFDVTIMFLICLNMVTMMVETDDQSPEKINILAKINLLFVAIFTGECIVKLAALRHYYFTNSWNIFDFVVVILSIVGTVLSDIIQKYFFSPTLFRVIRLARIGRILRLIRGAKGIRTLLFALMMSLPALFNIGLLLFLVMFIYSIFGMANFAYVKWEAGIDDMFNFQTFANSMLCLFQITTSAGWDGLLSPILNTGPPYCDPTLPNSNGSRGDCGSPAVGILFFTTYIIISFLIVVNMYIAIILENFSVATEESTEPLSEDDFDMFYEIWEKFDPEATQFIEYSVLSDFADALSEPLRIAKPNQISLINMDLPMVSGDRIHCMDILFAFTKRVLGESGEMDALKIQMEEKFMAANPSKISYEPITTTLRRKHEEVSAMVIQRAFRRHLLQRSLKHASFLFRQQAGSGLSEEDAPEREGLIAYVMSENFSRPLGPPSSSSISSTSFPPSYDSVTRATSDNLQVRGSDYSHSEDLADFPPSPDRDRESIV
The next series deals with human NaV1.6 (hNaV1.6) (Homo sapiens (Human), UniProt Q9UQD0). The series is described as follows: INaL inhibition at hNaV1.6, PatchXpress electrophysiology. The format is cell-based. In outline: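 Recombinant hNaV1.6 in HEK-293 cells recorded by automated patch clamp, with late current evoked by 300 nM ATX-II. INaL taken as mean current over the final 20 ms of the test pulse. Steady-state inhibition expressed as […].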
Chain of human NaV1.6 (hNaV1.6) (Q9UQD0 whole entry): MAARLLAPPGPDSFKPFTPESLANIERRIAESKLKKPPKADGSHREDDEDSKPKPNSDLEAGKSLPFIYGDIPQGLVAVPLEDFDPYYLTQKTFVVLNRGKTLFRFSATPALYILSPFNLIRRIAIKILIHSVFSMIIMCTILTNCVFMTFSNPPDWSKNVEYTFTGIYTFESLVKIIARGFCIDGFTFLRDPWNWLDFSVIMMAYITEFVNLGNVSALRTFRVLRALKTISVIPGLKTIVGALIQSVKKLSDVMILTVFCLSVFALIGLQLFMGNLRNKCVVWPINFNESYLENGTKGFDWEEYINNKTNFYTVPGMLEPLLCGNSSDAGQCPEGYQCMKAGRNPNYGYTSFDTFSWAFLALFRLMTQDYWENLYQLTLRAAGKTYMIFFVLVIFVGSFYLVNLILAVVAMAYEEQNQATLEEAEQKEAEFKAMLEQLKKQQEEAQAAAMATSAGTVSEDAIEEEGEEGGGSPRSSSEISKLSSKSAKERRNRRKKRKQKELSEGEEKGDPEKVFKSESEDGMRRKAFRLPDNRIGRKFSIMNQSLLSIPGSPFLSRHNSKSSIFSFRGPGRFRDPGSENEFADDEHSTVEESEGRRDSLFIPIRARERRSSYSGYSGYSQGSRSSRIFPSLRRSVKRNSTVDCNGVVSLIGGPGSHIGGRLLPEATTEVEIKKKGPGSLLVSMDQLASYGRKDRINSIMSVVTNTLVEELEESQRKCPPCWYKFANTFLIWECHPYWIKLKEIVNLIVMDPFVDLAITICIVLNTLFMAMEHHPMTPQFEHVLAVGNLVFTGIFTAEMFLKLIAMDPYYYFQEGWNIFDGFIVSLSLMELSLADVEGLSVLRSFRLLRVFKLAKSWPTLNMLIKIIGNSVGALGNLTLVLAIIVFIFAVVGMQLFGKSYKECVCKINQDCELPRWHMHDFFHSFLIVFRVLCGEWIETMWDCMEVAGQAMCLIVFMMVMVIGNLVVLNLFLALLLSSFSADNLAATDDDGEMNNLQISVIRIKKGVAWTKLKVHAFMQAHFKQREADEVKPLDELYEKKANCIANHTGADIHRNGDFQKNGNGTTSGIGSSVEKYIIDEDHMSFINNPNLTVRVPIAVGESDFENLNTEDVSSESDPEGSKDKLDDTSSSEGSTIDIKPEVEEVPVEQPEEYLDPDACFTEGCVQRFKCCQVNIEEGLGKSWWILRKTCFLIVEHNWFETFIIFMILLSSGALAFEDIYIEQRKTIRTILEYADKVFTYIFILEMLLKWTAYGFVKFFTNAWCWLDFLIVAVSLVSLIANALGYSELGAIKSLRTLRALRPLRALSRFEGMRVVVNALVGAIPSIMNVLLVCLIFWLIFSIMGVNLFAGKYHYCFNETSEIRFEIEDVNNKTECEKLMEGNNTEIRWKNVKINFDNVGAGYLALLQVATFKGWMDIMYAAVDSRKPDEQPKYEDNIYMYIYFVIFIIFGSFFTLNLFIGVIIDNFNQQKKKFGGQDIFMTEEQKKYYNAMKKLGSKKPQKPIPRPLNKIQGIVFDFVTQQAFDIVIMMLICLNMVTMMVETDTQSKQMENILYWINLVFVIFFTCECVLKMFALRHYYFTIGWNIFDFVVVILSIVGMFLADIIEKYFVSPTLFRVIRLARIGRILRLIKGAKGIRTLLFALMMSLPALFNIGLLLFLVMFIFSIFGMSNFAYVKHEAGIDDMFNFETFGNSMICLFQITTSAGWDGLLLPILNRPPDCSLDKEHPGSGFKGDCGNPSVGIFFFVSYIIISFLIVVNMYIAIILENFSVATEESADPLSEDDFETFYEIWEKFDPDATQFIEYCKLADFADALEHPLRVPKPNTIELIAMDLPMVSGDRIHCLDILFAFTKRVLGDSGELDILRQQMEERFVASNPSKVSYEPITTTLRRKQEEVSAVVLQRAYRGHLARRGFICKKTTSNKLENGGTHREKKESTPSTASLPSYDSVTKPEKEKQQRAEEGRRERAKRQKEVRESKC

A short description of series [2]: PK rat clearance experiment. The format is in vivo. Conditions: male Sprague-Dawley rats, single intravenous bolus 0.5 mg/kg, plasma.
Protocol: The IV dosing solution was prepared freshly on the dosing day. Test article (0.5 mg/kg) was prepared in a vehicle, for example, consisting of 5% DMSO/5% solutol/90% water. The concentrations of test article in all dosing solutions were determined by HPLC/UV. Three male Sprague-Dawley rats were used in this study. The animals were confirmed healthy before being assigned to the study. Each animal was given a unique identification number which was marked on the tail or the ear, and written on the cage card. All animals were fasted overnight before dosing and the food was returned at 4 hours post dosing. Water was provided to all animals ad libitum during the fasting period. Animals were weighed prior to dose administration on the day of dosing for calculating the actual dose volume. The body weights were in the range from 212 g to 223 g for males. All animals received test article by single intravenous bolus administration at 0.5 mg/kg. Approximately 0.2 mL blood was collected at each time point via jugular vein from each study animal. […] All blood samples were transferred into pre-labeled plastic micro centrifuge tubes and mixed with the pre-loaded anti-coagulant K2EDTA (5 μL, 0.5 M). Plasma samples were then prepared by centrifuging the blood samples. All plasma samples were then quickly frozen over dry ice and kept at −60° C. or lower until LC/MS/MS analysis. The concentrations of test article in plasma were determined by using a quantitative bioanalytical LC/MS/MS method. The lower limit of quantitation (LLOQ) for test article in plasma was 1 ng/mL, and the upper limit of quantitation (ULOQ) in plasma was 3000 ng/mL. The plasma concentration of test article in rats was subjected to a non compartmental pharmacokinetic analysis by using the Phoenix WinNonlin software (version 6.3, Pharsight, Mountain View, Calif.). The linear/log trapezoidal rule was applied in obtaining the PK parameters.
Another series concerns the target CYP1A2 (Homo sapiens (Human), UniProt P05177). The series is described as follows: CYP1A2 inhibition in human liver microsomes. The format is in vitro ADME. Conditions: pooled human liver microsomes, marker substrate Phenacetin. As for the experimental part:
The specific marker metabolites are measured with LC/MS/MS. The remaining enzymatic activities and inhibitory potency IC50 are determined. Microsomes are removed out of the −80° C. freezer to thaw on ice and 20 μL of the substrates solution added to the corresponding wells. […] Then 158 μL of the HLM working solution was added to all wells of the incubation plate. The plate was pre-warmed for about 10 min using a 37° C. water bath. Then 20 μL of the NADPH cofactor solution was added to all incubation wells, mixed and incubated for 10 minutes at 37° C. water bath. The reaction is terminated by adding 400 μL cold stop solution (200 ng/mL Tolbutamide and 200 ng/mL Labetalol in ACN). […] Finally 200 μL of the supernatant was transferred to 100 μL HPLC water, shaken for 10 min and analyzed by LC/MS/MS. […] Equation for three parameters logistic sigmoidal curve: […]

Setting [3] is: HEK293, 1 μM, HEK-293 cells expressing hNaV1.6, late current evoked by 300 nM ATX-II, read-out: INaL v1.6 (1 μM, % Inhibition).

Read-outs that look alike come from different tables or passages of the source.

Chain of CYP1A2 (P05177 whole entry): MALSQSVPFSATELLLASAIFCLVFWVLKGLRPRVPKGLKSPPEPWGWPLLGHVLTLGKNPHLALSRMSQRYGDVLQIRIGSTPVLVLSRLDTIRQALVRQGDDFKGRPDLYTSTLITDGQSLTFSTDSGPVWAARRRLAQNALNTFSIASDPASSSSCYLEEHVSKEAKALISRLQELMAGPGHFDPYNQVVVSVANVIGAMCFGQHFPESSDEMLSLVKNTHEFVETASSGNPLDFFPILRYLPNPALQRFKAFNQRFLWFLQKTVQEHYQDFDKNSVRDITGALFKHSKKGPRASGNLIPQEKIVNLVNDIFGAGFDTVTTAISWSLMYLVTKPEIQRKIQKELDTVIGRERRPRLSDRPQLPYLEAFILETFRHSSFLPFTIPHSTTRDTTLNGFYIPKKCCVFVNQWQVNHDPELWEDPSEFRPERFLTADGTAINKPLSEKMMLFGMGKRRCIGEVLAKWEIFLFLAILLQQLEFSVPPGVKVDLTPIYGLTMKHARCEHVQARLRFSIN

As to `COc1cc(C2(C#N)CC2)ccc1-c1ccc2nnc(C(F)(F)F)n2n1` [Compound 22], the inhibition at 1 µM in series [1] was greater than 50%. In addition, the inhibition at 1 µM on human NaV1.6 (hNaV1.6) (setting [3]) is greater than 70%. Further, in series [2], the clearance turned out to be 16.6 mL/min/kg and the half-life is 0.6 h.

For the compound `Fc1cc(-c2ccc3nnc(C(F)(F)F)n3n2)ccc1OC(F)(F)F` [Compound 31], the inhibition at 1 µM in series [1] is greater than 50%. In addition, the inhibition at 1 µM on human NaV1.6 (hNaV1.6) (setting [3]) is greater than 70%. For the same compound, in series [2], the clearance amounted to 2 mL/min/kg and the half-life is 15.4 h.

As for `N#CC1(c2ccc(-c3ccc4nnc(C(F)(F)F)n4n3)cc2)CC1` [Compound 12], the figures for the inhibition at 1 µM (in series [1]; at human NaV1.6 (hNaV1.6) (setting [3])) were greater than 50% and greater than 70%, respectively. Further, the IC50 at CYP1A2 is 1 to 15 µM. In series [2], this compound registered a clearance of 5.1 mL/min/kg. Also, the half-life in series [2] is 1.4 h.

For `Fc1cc(OC(F)(F)F)ccc1-c1ccc2nnc(C(F)(F)F)n2n1` [Compound 23], the inhibition at 1 µM in series [1] was greater than 50%; on human NaV1.6 (hNaV1.6) (setting [3]) it was greater than 70%. In series [2], this compound registered a clearance of 1.4 mL/min/kg. Further, in series [2], the half-life was 21.9 h.

As to `FC(F)(F)COc1ccc(-c2ccc3nnc(CC(F)(F)F)n3n2)cn1` [Compound 7], the results for the inhibition at 1 µM (in series [1]; at human NaV1.6 (hNaV1.6) (setting [3])) were less than 50% and 30 to 70%, respectively.

Regarding `FC(F)(F)Cc1nnc2ccc(-c3ccc(OC(F)(F)F)cc3)nn12` [Compound 6], in series [1], the inhibition at 1 µM was greater than 50%. Also, on human NaV1.6 (hNaV1.6) (setting [3]), the inhibition at 1 µM fell in the range of 30 to 70%. For the same compound, the IC50 on CYP1A2 lay in the range of 1 to 15 µM. In series [2], this compound had a clearance of 9.2 mL/min/kg and a half-life of 3.2 h.

Take `FC1(F)CC(c2nnc3ccc(-c4ccc(OC(F)(F)F)cc4)nn23)C1` [Compound 14]: in series [1], the inhibition at 1 µM is greater than 50%. Besides, the inhibition at 1 µM at human NaV1.6 (hNaV1.6) (setting [3]) is greater than 70%. Further, in series [2], the clearance worked out at 32.8 mL/min/kg and the half-life was 1.4 h.

With `Cc1cc(C(F)(F)F)ccc1-c1ccc2nnc(C(F)(F)F)n2n1` [Compound 3], in series [1], the inhibition at 1 µM was greater than 50%. For the same compound, on human NaV1.6 (hNaV1.6) (setting [3]), the inhibition at 1 µM was greater than 70%. The same compound yielded an IC50 on CYP1A2 of 1 to 15 µM. In series [2], the clearance was determined as 6 mL/min/kg and the half-life is 6.7 h.

For the compound `FC(F)(F)Oc1ccc(-c2ccc3nnc(CC4CCCO4)n3n2)cc1` (stereo not shown) [Compound 11], the results for the inhibition at 1 µM (in series [1]; on human NaV1.6 (hNaV1.6) (setting [3])) were less than 50% and less than 30%, respectively.

As for `FC(F)(F)Oc1cccc(-c2ccc3nnc(C(F)(F)F)n3n2)c1` [Compound 17], the inhibition at 1 µM was less than 50% in series [1] and 30 to 70% at human NaV1.6 (hNaV1.6) (setting [3]).

Regarding `Cc1cc(-c2ccc3nnc(C(F)(F)F)n3n2)ccc1OC(F)(F)F` [Compound 2], the inhibition at 1 µM in series [1] was greater than 50%; at human NaV1.6 (hNaV1.6) (setting [3]), greater than 70%.

Consider `COc1cc(OC(F)(F)F)ccc1-c1ccc2nnc(C3CC(F)(F)C3)n2n1` [Compound 13], for which the inhibition at 1 µM in series [1] was greater than 50%; at human NaV1.6 (hNaV1.6) (setting [3]) it was greater than 70%.

Turning to `FC(F)(F)COc1ccc(-c2ccc3nnc(C(F)(F)F)n3n2)cn1` [Compound 30], the inhibition at 1 µM in series [1] was greater than 50%. The inhibition at 1 µM on human NaV1.6 (hNaV1.6) (setting [3]) is greater than 70%. This compound also returned an IC50 at CYP1A2 of 15 to 30 µM. In series [2], this compound showed a clearance of 29 mL/min/kg and a half-life of 0.36 h.

Consider `FC(F)(F)Oc1ccc(-c2ccc3nnc(CC4CCOC4)n3n2)cc1` (stereo not shown) [Compound 10], for which the inhibition at 1 µM was less than 50% in series [1] and 30 to 70% at human NaV1.6 (hNaV1.6) (setting [3]).

For `COc1cc(OC(F)(F)F)ccc1-c1ccc2nnc(C(F)F)n2n1` [Compound 16], the inhibition at 1 µM in series [1] is greater than 50%. Also, the inhibition at 1 µM on human NaV1.6 (hNaV1.6) (setting [3]) was greater than 70%. In series [2], this compound showed a clearance of 52.3 mL/min/kg and a half-life of 0.49 h.

As for `Fc1ccc(OC(F)(F)F)cc1-c1ccc2nnc(C(F)(F)F)n2n1` [Compound 18], the inhibition at 1 µM was less than 50% in series [1] and less than 30% on human NaV1.6 (hNaV1.6) (setting [3]).

Turning to `FC(F)(F)COc1ccc(-c2ccc3nnc(C(F)(F)C(F)(F)F)n3n2)cn1` [Compound 9], the values for the inhibition at 1 µM (in series [1]; on human NaV1.6 (hNaV1.6) (setting [3])) were greater than 50% and 30 to 70%, respectively.

Turning to `OCc1nnc2ccc(-c3ccc(OC(F)(F)F)cc3)nn12` [Compound 21], the inhibition at 1 µM in series [1] is less than 50%; on human NaV1.6 (hNaV1.6) (HEK293, read-out: INaL v1.6 (1 μM, % Inhibition)) it was less than 30%.
